In ChEMBL document CHEMBL5465560, “Selectivity Literature for EUbOPEN Chemogenomic Library” (2024):

What was measured:
[1] = biological target: Activin receptor type-2B (Homo sapiens) (UniProt Q13705); conditions: at 10 µM
[2] = biological target: Cyclin-dependent kinase 8 (Homo sapiens, UniProt P49336); conditions: at 10 µM
[3] = biological target: T1, Protein arginine N-methyltransferase 7 (Homo sapiens) (UniProt Q9NVM4); test: Selectivity interaction (Methyltransferase screen (radiometric assays, panel of 8 PRMTs, 21 protein lysine methyltransferases, 3 DNA methyltransferases, and one RNA methyltransferase)) EUB0000272b PRMT7
T1 sequence (whole entry): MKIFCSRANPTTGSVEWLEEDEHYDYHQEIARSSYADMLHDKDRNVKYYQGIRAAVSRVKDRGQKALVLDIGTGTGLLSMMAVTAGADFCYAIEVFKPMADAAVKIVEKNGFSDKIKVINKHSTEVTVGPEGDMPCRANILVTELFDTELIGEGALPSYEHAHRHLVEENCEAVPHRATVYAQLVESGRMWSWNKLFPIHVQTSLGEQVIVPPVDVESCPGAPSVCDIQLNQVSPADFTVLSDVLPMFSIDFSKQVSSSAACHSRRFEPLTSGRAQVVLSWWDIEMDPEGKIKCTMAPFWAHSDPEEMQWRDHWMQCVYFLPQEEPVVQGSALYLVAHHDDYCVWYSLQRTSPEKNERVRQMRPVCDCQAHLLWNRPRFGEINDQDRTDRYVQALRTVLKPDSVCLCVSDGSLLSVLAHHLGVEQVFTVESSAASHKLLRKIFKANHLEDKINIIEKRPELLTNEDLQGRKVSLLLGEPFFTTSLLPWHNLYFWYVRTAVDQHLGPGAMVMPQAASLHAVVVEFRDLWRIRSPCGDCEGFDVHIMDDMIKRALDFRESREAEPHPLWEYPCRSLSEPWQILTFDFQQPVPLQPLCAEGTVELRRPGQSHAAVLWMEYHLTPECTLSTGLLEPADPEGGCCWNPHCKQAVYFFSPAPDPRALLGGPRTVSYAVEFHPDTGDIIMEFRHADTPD

[4] = biological target: Rho-associated protein kinase 2 (Homo sapiens, UniProt O75116); conditions: at 10 µM
[5] = biological target: Phosphatidylinositol 4,5-bisphosphate 3-kinase catalytic subunit beta isoform (Homo sapiens) (UniProt P42338); test: Selectivity interaction (KinomeScan (DiscoverX)) EUB0000877a PIK3CB; conditions: at 10 µM
[6] = biological target: STE20-like serine/threonine-protein kinase (Homo sapiens, UniProt Q9H2G2); test: Selectivity interaction (ProQinase) EUB0000171b SLK
[7] = biological target: T2, Discoidin domain-containing receptor 2 (Homo sapiens) (UniProt Q16832); test: Selectivity interaction (KinomeScan (DiscoverX)) EUB0000618a DDR2; conditions: at 10 µM
T2 sequence (whole entry): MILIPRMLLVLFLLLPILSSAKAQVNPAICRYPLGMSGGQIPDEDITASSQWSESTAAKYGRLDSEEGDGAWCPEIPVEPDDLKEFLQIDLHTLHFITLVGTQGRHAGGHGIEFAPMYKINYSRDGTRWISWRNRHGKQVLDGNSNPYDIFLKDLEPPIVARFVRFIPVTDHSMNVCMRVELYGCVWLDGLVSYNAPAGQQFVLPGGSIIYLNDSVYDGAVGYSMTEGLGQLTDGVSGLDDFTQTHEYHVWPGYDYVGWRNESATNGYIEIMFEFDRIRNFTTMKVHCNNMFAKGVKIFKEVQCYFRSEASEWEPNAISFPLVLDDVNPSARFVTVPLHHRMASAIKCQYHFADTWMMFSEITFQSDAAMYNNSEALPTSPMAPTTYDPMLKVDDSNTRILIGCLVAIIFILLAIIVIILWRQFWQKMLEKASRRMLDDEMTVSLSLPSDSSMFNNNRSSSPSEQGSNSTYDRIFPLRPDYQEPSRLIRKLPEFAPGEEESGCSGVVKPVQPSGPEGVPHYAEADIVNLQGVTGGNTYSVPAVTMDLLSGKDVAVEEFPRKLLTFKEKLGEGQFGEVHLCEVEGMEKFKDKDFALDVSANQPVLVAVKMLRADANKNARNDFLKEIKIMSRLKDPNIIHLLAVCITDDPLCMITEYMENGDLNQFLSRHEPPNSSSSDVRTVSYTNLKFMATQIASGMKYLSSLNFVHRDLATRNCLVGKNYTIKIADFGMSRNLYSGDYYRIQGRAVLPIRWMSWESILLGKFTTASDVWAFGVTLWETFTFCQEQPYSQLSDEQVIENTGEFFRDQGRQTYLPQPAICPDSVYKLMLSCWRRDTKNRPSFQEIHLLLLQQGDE

[8] = biological target: Calcium/calmodulin-dependent protein kinase type 1G (Homo sapiens) (UniProt Q96NX5); test: Selectivity interaction (Ambit KINOMEscan and KiNATiv profiling in Jurkat cells) EUB0000090b CAMK1G; format: cell-based; conditions: at 1 µM
[9] = biological target: T3, Peripheral plasma membrane protein CASK (Homo sapiens) (UniProt O14936); test: Selectivity interaction (Ambit KINOMEscan and KiNATiv profiling in Jurkat cells) EUB0000090b CASK; format: cell-based; conditions: at 1 µM
T3 sequence (whole entry): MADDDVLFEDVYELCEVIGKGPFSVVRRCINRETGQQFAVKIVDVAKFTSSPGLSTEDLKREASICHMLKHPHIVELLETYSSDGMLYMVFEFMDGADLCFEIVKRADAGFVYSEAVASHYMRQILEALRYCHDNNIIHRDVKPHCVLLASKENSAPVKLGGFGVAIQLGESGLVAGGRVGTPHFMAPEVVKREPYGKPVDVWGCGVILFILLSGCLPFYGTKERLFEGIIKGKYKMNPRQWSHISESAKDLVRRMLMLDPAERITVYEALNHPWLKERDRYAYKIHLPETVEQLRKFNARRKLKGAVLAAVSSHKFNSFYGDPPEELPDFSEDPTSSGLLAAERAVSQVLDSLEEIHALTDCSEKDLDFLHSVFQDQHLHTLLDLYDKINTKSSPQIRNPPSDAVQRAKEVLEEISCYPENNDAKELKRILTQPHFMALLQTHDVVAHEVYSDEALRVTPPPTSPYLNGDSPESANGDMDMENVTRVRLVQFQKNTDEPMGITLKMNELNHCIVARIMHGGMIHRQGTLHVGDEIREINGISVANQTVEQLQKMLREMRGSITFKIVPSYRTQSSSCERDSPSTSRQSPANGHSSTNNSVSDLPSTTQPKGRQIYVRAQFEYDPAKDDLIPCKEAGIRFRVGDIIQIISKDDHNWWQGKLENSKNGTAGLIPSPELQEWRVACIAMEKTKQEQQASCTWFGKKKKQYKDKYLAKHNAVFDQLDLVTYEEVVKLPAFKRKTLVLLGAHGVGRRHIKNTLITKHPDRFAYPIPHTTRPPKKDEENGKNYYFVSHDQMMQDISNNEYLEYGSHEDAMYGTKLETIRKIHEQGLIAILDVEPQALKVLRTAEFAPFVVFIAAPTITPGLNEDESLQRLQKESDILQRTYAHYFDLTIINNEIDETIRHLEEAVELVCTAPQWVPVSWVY

Chain of STE20-like serine/threonine-protein kinase (Q9H2G2 whole entry, looked up, the tested form may be a part): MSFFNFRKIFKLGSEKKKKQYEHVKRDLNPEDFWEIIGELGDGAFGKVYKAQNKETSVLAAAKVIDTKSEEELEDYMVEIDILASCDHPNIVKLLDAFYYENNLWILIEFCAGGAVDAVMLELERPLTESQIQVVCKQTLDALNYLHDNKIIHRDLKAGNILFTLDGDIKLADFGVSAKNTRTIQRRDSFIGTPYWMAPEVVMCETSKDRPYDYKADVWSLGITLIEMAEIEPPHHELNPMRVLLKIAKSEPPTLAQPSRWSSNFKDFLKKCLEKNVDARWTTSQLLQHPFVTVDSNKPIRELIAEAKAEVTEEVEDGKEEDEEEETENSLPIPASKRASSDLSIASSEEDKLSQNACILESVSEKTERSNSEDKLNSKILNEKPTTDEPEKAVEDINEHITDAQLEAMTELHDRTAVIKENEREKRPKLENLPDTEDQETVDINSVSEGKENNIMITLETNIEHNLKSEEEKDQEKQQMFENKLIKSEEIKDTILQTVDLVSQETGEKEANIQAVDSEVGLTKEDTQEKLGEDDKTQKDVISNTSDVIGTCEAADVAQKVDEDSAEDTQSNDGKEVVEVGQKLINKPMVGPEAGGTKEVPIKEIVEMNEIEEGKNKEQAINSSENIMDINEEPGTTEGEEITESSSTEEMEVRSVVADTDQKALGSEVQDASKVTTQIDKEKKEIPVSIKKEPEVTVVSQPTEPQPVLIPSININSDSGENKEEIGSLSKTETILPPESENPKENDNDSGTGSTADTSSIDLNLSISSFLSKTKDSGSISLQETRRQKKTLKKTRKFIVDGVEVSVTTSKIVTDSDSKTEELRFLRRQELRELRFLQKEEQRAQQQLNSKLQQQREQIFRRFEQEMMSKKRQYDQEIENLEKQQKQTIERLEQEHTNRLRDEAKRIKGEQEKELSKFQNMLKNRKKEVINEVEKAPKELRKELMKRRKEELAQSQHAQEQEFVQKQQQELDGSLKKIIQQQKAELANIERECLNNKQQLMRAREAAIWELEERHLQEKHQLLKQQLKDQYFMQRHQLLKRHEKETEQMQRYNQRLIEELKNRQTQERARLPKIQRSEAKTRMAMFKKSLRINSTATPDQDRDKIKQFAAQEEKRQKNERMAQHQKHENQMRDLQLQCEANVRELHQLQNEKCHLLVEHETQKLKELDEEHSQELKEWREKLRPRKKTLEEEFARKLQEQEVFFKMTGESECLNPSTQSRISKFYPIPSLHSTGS
Chain of Rho-associated protein kinase 2 (O75116 whole entry, looked up, canonical isoform): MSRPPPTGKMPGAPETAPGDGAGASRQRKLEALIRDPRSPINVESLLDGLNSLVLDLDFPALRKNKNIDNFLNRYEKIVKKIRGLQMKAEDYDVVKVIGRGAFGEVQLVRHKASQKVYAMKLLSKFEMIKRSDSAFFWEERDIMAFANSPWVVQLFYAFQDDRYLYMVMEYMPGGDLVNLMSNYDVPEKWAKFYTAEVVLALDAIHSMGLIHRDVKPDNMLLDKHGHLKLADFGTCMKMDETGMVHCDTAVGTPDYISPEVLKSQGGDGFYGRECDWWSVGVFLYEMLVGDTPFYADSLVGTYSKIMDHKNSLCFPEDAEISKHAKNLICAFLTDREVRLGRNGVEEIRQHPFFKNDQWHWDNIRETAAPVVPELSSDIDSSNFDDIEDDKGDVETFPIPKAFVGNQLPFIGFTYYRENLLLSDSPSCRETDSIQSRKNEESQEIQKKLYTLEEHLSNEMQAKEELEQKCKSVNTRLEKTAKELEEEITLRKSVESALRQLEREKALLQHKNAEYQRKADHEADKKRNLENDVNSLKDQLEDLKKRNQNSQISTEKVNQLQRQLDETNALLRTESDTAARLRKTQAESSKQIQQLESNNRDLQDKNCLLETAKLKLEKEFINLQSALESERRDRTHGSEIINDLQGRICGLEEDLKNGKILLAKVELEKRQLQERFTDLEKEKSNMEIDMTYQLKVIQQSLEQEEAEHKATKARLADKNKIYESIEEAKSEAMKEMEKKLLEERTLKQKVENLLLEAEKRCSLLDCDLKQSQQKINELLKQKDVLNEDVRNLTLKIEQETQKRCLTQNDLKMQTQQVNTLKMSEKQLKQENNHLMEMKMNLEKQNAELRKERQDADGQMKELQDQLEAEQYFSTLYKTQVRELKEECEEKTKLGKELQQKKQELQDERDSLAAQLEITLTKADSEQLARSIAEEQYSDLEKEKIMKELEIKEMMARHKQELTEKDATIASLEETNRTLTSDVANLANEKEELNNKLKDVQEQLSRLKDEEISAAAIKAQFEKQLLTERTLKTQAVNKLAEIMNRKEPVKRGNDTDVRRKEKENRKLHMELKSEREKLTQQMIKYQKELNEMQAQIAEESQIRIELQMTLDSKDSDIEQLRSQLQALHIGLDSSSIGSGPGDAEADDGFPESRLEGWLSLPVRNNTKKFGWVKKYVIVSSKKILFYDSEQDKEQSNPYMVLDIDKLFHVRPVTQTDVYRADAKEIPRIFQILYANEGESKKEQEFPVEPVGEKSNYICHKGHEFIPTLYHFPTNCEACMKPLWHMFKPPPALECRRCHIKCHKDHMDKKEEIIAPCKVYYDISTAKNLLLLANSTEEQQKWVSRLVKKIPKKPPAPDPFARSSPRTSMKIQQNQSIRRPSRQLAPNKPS
Chain of Calcium/calmodulin-dependent protein kinase type 1G (Homo sapiens) (Q96NX5 whole entry): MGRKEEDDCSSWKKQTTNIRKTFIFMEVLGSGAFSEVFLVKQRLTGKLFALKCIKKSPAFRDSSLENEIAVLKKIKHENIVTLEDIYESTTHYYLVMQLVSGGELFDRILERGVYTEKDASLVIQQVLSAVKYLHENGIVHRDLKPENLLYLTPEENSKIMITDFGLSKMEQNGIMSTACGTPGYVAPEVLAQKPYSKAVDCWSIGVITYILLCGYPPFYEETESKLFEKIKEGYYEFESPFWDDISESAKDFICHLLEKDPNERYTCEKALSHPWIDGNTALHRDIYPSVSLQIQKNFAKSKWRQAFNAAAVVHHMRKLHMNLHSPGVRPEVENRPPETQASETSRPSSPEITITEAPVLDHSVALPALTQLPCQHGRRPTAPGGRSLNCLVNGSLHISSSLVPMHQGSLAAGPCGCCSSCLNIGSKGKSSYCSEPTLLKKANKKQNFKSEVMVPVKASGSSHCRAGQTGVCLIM
Chain of Cyclin-dependent kinase 8 (P49336 whole entry): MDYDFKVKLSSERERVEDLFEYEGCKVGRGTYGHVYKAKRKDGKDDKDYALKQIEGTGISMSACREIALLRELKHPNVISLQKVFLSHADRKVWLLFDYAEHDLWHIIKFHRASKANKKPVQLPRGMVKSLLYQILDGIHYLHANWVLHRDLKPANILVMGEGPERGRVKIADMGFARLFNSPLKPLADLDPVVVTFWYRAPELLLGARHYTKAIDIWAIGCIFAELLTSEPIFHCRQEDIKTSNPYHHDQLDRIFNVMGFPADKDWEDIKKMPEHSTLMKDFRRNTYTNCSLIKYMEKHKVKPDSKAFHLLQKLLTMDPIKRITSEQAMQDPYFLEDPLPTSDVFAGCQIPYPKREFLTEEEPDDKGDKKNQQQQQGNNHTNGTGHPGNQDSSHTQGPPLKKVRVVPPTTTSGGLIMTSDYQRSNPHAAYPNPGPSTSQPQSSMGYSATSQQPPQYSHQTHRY
Chain of Phosphatidylinositol 4,5-bisphosphate 3-kinase catalytic subunit beta isoform (Homo sapiens) (P42338 whole entry, looked up, canonical isoform): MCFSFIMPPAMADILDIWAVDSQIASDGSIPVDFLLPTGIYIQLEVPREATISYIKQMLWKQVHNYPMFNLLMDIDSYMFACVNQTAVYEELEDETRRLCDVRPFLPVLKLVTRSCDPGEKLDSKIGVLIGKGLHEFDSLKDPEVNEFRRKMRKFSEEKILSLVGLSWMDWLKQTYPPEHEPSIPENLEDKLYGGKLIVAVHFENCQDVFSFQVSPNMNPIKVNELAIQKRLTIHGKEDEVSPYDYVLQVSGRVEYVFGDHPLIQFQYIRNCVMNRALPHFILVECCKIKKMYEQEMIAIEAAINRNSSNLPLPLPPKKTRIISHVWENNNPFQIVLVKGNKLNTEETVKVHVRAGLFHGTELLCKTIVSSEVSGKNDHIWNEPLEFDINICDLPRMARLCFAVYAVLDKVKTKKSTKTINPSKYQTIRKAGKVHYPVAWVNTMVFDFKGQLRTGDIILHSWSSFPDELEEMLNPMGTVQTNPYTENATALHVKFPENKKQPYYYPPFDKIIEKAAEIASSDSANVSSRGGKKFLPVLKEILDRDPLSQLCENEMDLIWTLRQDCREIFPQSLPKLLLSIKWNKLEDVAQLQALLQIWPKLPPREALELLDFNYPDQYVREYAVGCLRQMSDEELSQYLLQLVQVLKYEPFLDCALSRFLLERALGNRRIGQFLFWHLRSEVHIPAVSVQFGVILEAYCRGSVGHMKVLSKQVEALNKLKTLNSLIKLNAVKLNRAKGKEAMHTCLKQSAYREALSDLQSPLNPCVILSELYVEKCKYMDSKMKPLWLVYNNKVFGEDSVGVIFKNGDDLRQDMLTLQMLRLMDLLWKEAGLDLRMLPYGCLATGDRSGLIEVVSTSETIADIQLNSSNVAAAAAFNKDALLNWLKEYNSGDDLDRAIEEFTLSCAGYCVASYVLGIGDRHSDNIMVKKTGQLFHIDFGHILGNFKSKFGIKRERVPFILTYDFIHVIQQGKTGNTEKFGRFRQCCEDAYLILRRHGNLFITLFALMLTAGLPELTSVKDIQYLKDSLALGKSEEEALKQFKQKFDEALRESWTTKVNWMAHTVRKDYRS

COCC(=O)NC/C=C/c1ccc2ncnc(Nc3ccc(Oc4ccc(C)nc4)c(C)c3)c2c1 [CP-724714]
% of control [1]: 100%
% of control [2]: 3%

Cc1cc(C)cc([C@H]2c3cc(C)ccc3NC(=O)CN2C(=O)c2ccc(Br)s2)c1
% of activity ([3]; at 1 µM): 97.7%
% of activity ([3]; at 10 µM): 100%

Cc1cc([C@@H](C)Nc2ccccc2C(=O)O)c2nc(N3CCOCC3)cc(=O)n2c1 [AZD-6482]
% of control [4]: 91%

CCC(=O)N1CC[C@H](Nc2ncnc3c2CN(c2cnc(OC)c(C(F)(F)F)c2)CC3)C1 [LENIOLISIB]
% of inhibition [5]: 98%

C=CC(=O)Nc1cccc(C(=O)Nc2ccc(Nc3cc(-c4[nH]c(SC)nc4C)ccn3)cc2)c1
% of control ([6]; at 1 µM): 102%
% of control ([6]; at 5 µM): 76%

O[C@H]1CC[C@H](Nc2ncc3nc(Nc4c(F)cc(F)cc4F)n([C@H]4CCOC4)c3n2)CC1
% of control [7]: 89%

CN(C)C/C=C/C(=O)Nc1ccc(C(=O)N2CCCC(Nc3ncc(Cl)c(-c4c[nH]c5ccccc45)n3)C2)cc1 (stereo unspecified)
% of control [8]: 81%
% of control [9]: 90%
